Marks after values point to notes of the source that are not given here. Primed or numbered codes have the meaning given here. Ends that are not written are not given here. * marks the point of attachment. GW4064″ = FXR ligand, CC(C)c1onc(-c2c(Cl)cccc2Cl)c1COc1ccc(/C=C/c2cccc(C(=O)*)c2)c(Cl)c1; RARβ/γ ligand = not defined here; Decanoyl = CCCCCCCCCC(=O)*; bexarotene″ = RXR ligand; GW4064(3) = FXR ligand; GW7647 = PPARα ligand
What was measured:
Format in all cases: cell-based
A375 = test: Cancer cell viability (CellTiterGlo), A375; details: RXR modulators each at 0.5 uM with peptide imm3A1 0.66 uM, 72 hour; untreated=100
Protocol: (§1) A375, A549 and HuT78 cancer cell lines was obtained from American Type Culture Collection (ATCC). They were grown in a T-75 flask in DMEM (or IMDM, for HuT78) medium containing 10% fetal bovine serum and penicillin-streptomycin at 37° C. in a humidified, 5% CO2 incubator. Cells (100 µl, 2,000 cells/well; 5,000 cells/well for HuT78) were plated in a 96-well plate and incubated overnight at 37° C. in a humidified, 5% CO2 incubator. Next day, 10 ul/well of compounds were added (quadruplicate wells). After 72 hour incubation with the compound, cell viability was measured in a luminometer by addition of 100 µL/well CellTiterGlo reagent (Promega Inc, Madison, WI) and reading chemiluminescence after 10 mins, as recommended by the manufacturer. Peptide imm3A1 ([…]-[…]) was added at 0.66 uM and RXR modulators, each at 0.5 uM. The results of this experiment are shown below, expressed as percent survival of cells (untreated=100).

HuT78 = test: Cancer cell viability (CellTiterGlo), HuT78; details: RXR modulators each at 0.5 uM with peptide imm3A1 0.66 uM, 72 hour; untreated=100
Protocol: as §1

A549 = test: Cancer cell viability (CellTiterGlo), A549; details: RXR modulators each at 0.5 uM with peptide imm3A1 0.66 uM, 72 hour; untreated=100
Protocol: as §1

C2C12 myoblast cell line = test: C2C12 myoblast differentiation assay (creatine kinase); parameters: CK (units/mg): unit not given here; details: for CK (units/mg): peptide(s) 0.66 uM, no free added ligand, 96 h, relative to imm3SVD (=100)
Protocol: C2C12 myoblast cell line (ATCC, Manassas, VA) was cultured in DMEM medium supplemented with 10% FBS and 1% penicillin/streptomycin. For differentiation, cells were cultured in the same medium, except that 10% FBS was replaced by 2% horse serum. Peptides and NR ligands were added at the indicated concentrations and cells were harvested 96 hours later for assay. Cell extracts were assayed for creatine kinase (CK) per mg protein. CK was measured using the ECPK-100 kit from BioAssay Systems (Hayward, CA). Protein was assayed using the BCA protein assay kit from Thermofisher Scientific (Waltham, MA).

HFF-1 cell line = test: Collagen stimulating activity (COL1A1 ELISA of supernatants); details: peptide 2 uM, 72 hour, supernatant anti-COL1A1 ELISA
Protocol: Immodulin peptides have potential untility in the field of cosmetics. HFF-1 cell line from American Type Culture Collection (ATCC) was grown in DMEM Medium containing 10% fetal bovine serum and penicillin-streptomycin at 37° C. in a humidified, 5% CO2 incubator. 2,000 cells/well were plated in a 96-well plate and incubated overnight. 10 ul/well of peptides (2 uM final concentration) were added in quadruplicate wells. After 72 hour incubation with the compound, supernatants were collected and immunoreactivity was measured by ELISA using monoclonal anti-COL1A1 antibody (Abcam, Cambridge, MA). * p<0.05, ** p<0.01 vs no peptide.

CN1c2ccccc2N=C(c2ccc(C(=O)O)cc2)c2cc3c(cc21)C(C)(C)CCC3(C)C [HX600]
percent survival of cells, A375 (A375): 57.1 ± 0.6 a percent
percent survival of cells, HuT78 (HuT78): 48.7 ± 2.8 a percent
percent survival of cells, A549 (A549): 60.0 ± 0.6 a percent

imm3fxr: SDKKGFYKKKQCRPSKGRKRGFCWSVDK with C-lig GW4064 (FXR ligand) (SDKKGFYKKKQCRPSKGRKRGFCWSVDK-{GW4064(3)}; cysteine pairing not given here)
CK (units/mg) (C2C12 myoblast cell line): 136.8 ± 19.6

IM3K9: peptide AFNSYELGSKGFYKKKQCRPSKGRKRGFCW
COL1 ng/ml (HFF-1 cell line): 0.57 ± 0.13** ng/ml

CN1c2ccc([N+](=O)[O-])cc2N=C(c2ccc(C(=O)O)cc2)c2cc3c(cc21)C(C)(C)CCC3(C)C [HX531]
percent survival of cells, A375 (A375): 89.9 ± 1.6 a percent
percent survival of cells, HuT78 (HuT78): 88.1 ± 0.8%
percent survival of cells, A549 (A549): 89.2 ± 4.1 b percent

imm3ppa: SDKKGFYKKKQCRPSKGRKRGFCWSVDK with C-lig GW7647 (PPARα ligand) on C-terminal lysine (SDKKGFYKKKQCRPSKGRKRGFCWSVDK(GW7647); cysteine pairing not given here)
CK (units/mg) (C2C12 myoblast cell line): 155.9 ± 18.8

IM3: peptide KKGFYKKKQCRPSKGRKRGFCW
COL1 (HFF-1 cell line): 0.28 ± 0.23 ng/mL

IM3dec: (decanoic)-KKGFYKKKQCRPSKGRKRGFCW, N-lig PPARγ (Decanoyl-KKGFYKKKQCRPSKGRKRGFCW; cysteine pairing not given here)
COL1 ng/ml (HFF-1 cell line): 0.41 ± 0.11* ng/ml

imm3fxr-bex: fxr-SDKKGFYKKKQCRPSKGRKRGFCWSVDK-[bex]: GW4064 at N-terminus, bexarotene at C-terminus; multisynchron ({GW4064″}-SDKKGFYKKKQCRPSKGRKRGFCWSVDK-{bexarotene″}; cysteine pairing not given here)
performance in cell culture assays (C2C12 myoblast cell line; single peptide compared with combination of imm3fxr and imm3bex): performs as predicted from the performance of the combination of imm3fxr and imm3bex episynchrons

imm3decK9adp: multisynchron SAFNSYELGSDKKGFYKKKQCRPSKGRKRGFCWS, N-lig PPARγ, C-lig RARβ/γ (Decanoyl-SAFNSYELGSDKKGFYKKKQCRPSKGRKRGFCWS-{RARβ/γ ligand}; cysteine pairing not given here; reading uncertain)
COL1 ng/ml (HFF-1 cell line): 5.27 ± 0.36** ng/ml

imm3bex: SDKKGFYKKKQCRPSKGRKRGFCWSVDK with C-lig bexarotene (RXR ligand) (SDKKGFYKKKQCRPSKGRKRGFCWSVDK-{bexarotene″}; cysteine pairing not given here)
CK (units/mg) (C2C12 myoblast cell line): 121.0 ± 6.6

Source: patent US20260265341A1, “EPISYNCHRONS FOR PRECISION MEDICINE” (priority 2022, published 2026)
